ChEMBL document CHEMBL2346660, “Synthesis and biological evaluation of trans 6-methoxy-1,1-dimethyl-2-phenyl-3-aryl-2,3-dihydro-1H-inden-4-yloxyalkylamine derivatives against drug susceptible, non-replicating M. tuberculosis H37Rv and clinical multidrug resistant strains” (Bioorg Med Chem Lett, 2013)
≈ marks a conversion by molar mass, not a printed value.

What was measured:
[1] = tested on: Mycobacterium tuberculosis; experiment: Antimicrobial activity against rifampicin-resistant and INH-resistant Mycobacterium tuberculosis 1678/05 by agar dilution method and BACTEC radiometric method; type: functional
[2] = tested on: Mycobacterium tuberculosis; experiment: Antimicrobial activity against rifampicin-resistant and INH-resistant Mycobacterium tuberculosis 2643 by agar dilution method and BACTEC radiometric method; type: functional

SMILES	MIC [1] [µg/mL]	MIC [2] [µg/mL]
COc1cc(OCCN(C(C)C)C(C)C)c2c(c1)C(C)(C)[C@H](c1ccccc1)[C@H]2c1ccccc1 (relative stereo)	6.25 (≈ 13.3 µM)	6.25 (≈ 13.3 µM)
COc1cc(OCCN2CCCCCC2)c2c(c1)C(C)(C)[C@H](c1ccccc1)[C@H]2c1c(OC)ccc2ccccc12 (relative stereo)	3.12 (≈ 5.68 µM)	3.12 (≈ 5.68 µM)
